Measured values taken from ChEMBL document CHEMBL1909046, “DrugMatrix in vitro pharmacology data”.

Experiments:
[1] = biological target: T1, Type-2 angiotensin II receptor (Homo sapiens, UniProt P50052); type: cell-based; conditions: cho-k1; note: in other assays of this panel Not Active means under 50% inhibition at 10 µM
T1 sequence (P50052 whole entry): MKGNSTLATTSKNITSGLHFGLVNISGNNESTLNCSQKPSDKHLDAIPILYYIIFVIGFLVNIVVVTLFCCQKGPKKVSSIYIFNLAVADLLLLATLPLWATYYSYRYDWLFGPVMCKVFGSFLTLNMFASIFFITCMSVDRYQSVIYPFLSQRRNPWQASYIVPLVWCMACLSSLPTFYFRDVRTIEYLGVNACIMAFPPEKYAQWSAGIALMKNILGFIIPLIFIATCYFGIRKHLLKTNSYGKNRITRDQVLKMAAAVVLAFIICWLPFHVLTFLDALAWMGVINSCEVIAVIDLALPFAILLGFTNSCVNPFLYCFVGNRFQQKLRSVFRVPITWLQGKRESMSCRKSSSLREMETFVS

Cannabinoid receptor 1 = Cannabinoid receptor 1 (Homo sapiens, UniProt P21554); type: cell membranes, Chem-1, Membrane; conditions: chem-1; note: in other assays of this panel Not Active means under 50% inhibition at 10 µM
[2] = biological target: T2, Angiotensin-converting enzyme (Oryctolagus cuniculus, UniProt P12822); type: tissue-based, Lung;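 note: enzymatic inhibition of angiotensin-converting enzyme measured with FAPGG as the substrate; in other assays of this panel Not Active means under 50% inhibition at 10 µM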
T2 sequence (P12822 whole entry): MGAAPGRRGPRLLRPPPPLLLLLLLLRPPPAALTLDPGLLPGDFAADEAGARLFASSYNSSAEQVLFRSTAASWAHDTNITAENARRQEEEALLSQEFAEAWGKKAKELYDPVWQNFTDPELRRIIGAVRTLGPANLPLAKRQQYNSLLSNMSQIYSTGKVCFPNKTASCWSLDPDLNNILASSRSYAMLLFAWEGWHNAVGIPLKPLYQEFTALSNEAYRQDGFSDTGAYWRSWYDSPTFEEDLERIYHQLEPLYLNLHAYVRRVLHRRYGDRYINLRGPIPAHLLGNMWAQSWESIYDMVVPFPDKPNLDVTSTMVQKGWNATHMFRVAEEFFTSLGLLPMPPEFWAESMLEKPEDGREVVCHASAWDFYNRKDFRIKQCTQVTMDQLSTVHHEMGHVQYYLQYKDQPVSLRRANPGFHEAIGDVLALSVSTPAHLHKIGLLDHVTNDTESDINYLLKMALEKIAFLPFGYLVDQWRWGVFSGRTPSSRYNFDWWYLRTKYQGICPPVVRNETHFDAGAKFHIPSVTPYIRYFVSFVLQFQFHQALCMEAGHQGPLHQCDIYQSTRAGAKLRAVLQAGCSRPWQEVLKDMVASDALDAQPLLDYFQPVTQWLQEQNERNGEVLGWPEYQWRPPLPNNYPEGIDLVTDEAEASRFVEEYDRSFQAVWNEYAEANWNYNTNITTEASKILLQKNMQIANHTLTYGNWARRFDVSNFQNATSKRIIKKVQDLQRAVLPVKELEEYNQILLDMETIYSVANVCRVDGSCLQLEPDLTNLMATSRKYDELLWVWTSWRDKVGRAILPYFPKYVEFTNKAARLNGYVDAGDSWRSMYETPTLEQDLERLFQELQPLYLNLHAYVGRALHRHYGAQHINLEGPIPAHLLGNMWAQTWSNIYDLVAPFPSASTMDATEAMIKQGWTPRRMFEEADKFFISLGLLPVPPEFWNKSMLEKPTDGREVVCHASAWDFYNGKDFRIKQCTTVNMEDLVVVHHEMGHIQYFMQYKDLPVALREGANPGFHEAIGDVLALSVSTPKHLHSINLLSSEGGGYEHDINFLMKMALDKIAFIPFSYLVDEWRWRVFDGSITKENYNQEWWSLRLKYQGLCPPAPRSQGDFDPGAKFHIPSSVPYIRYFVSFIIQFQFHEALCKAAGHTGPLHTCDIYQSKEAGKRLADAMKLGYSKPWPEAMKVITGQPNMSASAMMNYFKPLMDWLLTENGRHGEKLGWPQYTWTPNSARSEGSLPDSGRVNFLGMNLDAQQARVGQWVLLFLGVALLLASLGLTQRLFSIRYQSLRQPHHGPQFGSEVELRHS

[3] = biological target: T3, Muscarinic acetylcholine receptor M5 (Homo sapiens, UniProt P08912); type: cell membranes, CHO-K1, Membrane; conditions: cho-k1; note: in other assays of this panel Not Active means under 50% inhibition at 10 µM
T3 sequence (P08912 whole entry): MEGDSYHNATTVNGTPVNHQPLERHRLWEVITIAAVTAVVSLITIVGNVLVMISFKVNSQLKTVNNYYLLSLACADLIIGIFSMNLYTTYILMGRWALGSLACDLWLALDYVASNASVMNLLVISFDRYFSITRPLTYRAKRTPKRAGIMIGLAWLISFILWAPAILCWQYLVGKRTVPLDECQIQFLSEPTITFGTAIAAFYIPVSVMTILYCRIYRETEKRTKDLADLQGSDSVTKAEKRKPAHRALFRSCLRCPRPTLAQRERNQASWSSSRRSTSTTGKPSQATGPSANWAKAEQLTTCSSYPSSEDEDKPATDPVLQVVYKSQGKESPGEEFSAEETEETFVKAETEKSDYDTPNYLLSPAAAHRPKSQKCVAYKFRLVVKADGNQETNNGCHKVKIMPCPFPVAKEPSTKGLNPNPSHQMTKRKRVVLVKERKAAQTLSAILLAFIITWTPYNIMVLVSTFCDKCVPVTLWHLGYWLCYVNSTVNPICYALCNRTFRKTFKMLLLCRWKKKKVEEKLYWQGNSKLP

[4] = DRUGMATRIX: Calcium Channel Type L, Benzothiazepine radioligand binding (ligand: [3H] Diltiazem); type: cell membranes, Rattus norvegicus, Wistar, Brain, Membrane; conditions: Not Active = under 50% inhibition at 10 µM
Vasopressin V1a receptor = Vasopressin V1a receptor (Homo sapiens, UniProt P37288); type: cell membranes, Membrane; conditions: hek293; note: in other assays of this panel Not Active means under 50% inhibition at 10 µM
[5] = DRUGMATRIX: Potassium Channel [KATP] radioligand binding (ligand: [3H] Glyburide); type: cell membranes, Membrane; conditions: hit-t15; Not Active = under 50% inhibition at 10 µM

Chain of Cannabinoid receptor 1 (P21554 whole entry): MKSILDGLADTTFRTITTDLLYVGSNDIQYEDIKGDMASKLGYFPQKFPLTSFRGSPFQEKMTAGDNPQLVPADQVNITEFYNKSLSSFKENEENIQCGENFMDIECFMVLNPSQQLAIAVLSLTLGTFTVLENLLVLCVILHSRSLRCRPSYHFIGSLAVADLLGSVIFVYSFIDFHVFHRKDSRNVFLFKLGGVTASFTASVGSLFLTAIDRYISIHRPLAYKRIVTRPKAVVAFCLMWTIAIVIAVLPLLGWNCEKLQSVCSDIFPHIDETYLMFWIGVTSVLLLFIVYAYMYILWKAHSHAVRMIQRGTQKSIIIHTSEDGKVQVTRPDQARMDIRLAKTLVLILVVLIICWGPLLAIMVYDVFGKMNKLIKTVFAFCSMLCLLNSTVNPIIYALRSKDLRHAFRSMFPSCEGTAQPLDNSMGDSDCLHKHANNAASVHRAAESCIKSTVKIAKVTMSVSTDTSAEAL
Chain of Vasopressin V1a receptor (P37288 whole entry): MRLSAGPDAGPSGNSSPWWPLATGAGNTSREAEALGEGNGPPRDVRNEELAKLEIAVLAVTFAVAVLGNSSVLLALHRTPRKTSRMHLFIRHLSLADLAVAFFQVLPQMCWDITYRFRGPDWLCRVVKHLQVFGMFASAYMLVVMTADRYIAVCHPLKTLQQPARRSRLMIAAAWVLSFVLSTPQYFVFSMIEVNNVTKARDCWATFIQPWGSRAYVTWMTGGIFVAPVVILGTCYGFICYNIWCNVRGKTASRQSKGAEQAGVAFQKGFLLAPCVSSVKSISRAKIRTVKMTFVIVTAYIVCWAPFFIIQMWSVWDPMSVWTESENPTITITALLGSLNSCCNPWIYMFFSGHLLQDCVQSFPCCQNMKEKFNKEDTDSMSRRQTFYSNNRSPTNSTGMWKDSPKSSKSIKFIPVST

| Molecule | IC50 [1] | IC50 (Cannabinoid receptor 1) | IC50 [2] | IC50 [3] | IC50 [4] | Ki [4] | IC50 (Vasopressin V1a receptor) | IC50 [5] | Ki [5] | IC50 ([4]; read-out: IC50) | Ki ([4]; read-out: Ki) | Ki [1] | Ki (Cannabinoid receptor 1) | Ki [2] | Ki [3] | Ki (Vasopressin V1a receptor) |
| --- | --- | --- | --- | --- | --- | --- | --- | --- | --- | --- | --- | --- | --- | --- | --- | --- |
| O=C(N/N=C/c1ccc([N+](=O)[O-])o1)c1cc([N+](=O)[O-])cc([N+](=O)[O-])c1O [NIFURSOL] | Not Active | Not Active | Not Active | Not Active | Not Active | Not Active | Not Active | Not Active | Not Active |  |  |  |  |  |  |  |
| COC(=O)Nc1nc2ccc(C(=O)c3cccs3)cc2[nH]1 [NOCODAZOLE] | Not Active | Not Active | Not Active | Not Active | Not Active | Not Active | Not Active | Not Active | Not Active |  |  |  |  |  |  |  |
| C#CC1(O)CC[C@H]2[C@@H]3CCC4=CC(=O)CC[C@@H]4[C@H]3CC[C@@]21CC (stereo partly specified) [NORGESTREL] | Not Active | Not Active | Not Active | Not Active | Not Active | Not Active | Not Active | Not Active | Not Active |  |  |  |  |  |  |  |
| COC(=O)Nc1nc2ccc([S+]([O-])c3ccccc3)cc2[nH]1 (stereo unspecified) [OXFENDAZOLE] | Not Active | Not Active | Not Active | Not Active | Not Active | Not Active | Not Active | Not Active | Not Active |  |  |  |  |  |  |  |
| CC(=O)O[C@H]1C(=O)[C@@]2(C)[C@H]([C@H](OC(=O)c3ccccc3)[C@]3(O)C[C@H](OC(=O)[C@H](O)[C@@H](NC(=O)c4ccccc4)c4ccccc4)C(C)=C1C3(C)C)[C@]1(OC(C)=O)CO[C@@H]1C[C@@H]2O [PACLITAXEL] | Not Active | Not Active | Not Active | Not Active | Not Active | Not Active | Not Active | Not Active | Not Active |  |  |  |  |  |  |  |
| C[n+]1ccc(-c2cc[n+](C)cc2)cc1.[Cl-].[Cl-] [PARAQUAT DICHLORIDE] | Not Active | Not Active | Not Active | Not Active | Not Active | Not Active | Not Active | Not Active | Not Active |  |  |  |  |  |  |  |
| CC(C)NCC(O)COc1cccc2[nH]ccc12 (stereo unspecified) [PINDOLOL] | Not Active | Not Active | Not Active | Not Active | Not Active | Not Active | Not Active | Not Active | Not Active |  |  |  |  |  |  |  |
| CCn1cc(C(=O)O)c(=O)c2cnc(N3CCCC3)nc21 [PIROMIDIC ACID] | Not Active | Not Active | Not Active | Not Active | Not Active | Not Active | Not Active | Not Active | Not Active |  |  |  |  |  |  |  |
| C[n+]1ccccc1/C=N/O.[Cl-] [PRALIDOXIME CHLORIDE] | Not Active | Not Active | Not Active | Not Active | Not Active | Not Active | Not Active | Not Active | Not Active |  |  |  |  |  |  |  |
| COc1cc2nc(N3CCN(C(=O)c4ccco4)CC3)nc(N)c2cc1OC [PRAZOSIN] | Not Active | Not Active | Not Active | Not Active | Not Active | Not Active | Not Active | Not Active | Not Active |  |  |  |  |  |  |  |
| C[C@]12C=CC(=O)C=C1CC[C@@H]1[C@@H]2[C@@H](O)C[C@@]2(C)[C@H]1CC[C@]2(O)C(=O)CO [PREDNISOLONE] | Not Active | Not Active | Not Active | Not Active | Not Active | Not Active | Not Active | Not Active | Not Active |  |  |  |  |  |  |  |
| CC(=O)[C@H]1[C@H](C#N)C[C@H]2[C@@H]3CC=C4C[C@@H](O)CC[C@]4(C)[C@H]3CC[C@@]21C [PREGNENOLONE CARBONITRILE] | Not Active | Not Active | Not Active | Not Active | Not Active | Not Active | Not Active | Not Active | Not Active |  |  |  |  |  |  |  |
| CCCN(CCC)S(=O)(=O)c1ccc(C(=O)O)cc1 [PROBENECID] | Not Active | Not Active | Not Active | Not Active | Not Active | Not Active | Not Active | Not Active | Not Active |  |  |  |  |  |  |  |
| CCCNCC(O)COc1ccccc1C(=O)CCc1ccccc1 (stereo unspecified) [PROPAFENONE] | Not Active | Not Active | Not Active | Not Active |  |  | Not Active | Not Active | Not Active | 775 nM | 689 nM |  |  |  |  |  |
| CCCOc1ccc(C(=O)OCCN(CC)CC)cc1N [PROPARACAINE] | Not Active | Not Active | Not Active | Not Active | Not Active | Not Active | Not Active | Not Active | Not Active |  |  |  |  |  |  |  |
| CC(C)c1cccc(C(C)C)c1O [PROPOFOL] | Not Active | Not Active | Not Active | Not Active | Not Active | Not Active | Not Active | Not Active | Not Active |  |  |  |  |  |  |  |
| C[C@@H]1O[C@@H](O[C@@H]2C=C3CC[C@@H]4[C@H](CC[C@]5(C)[C@@H](c6ccc(=O)oc6)CC[C@]45O)[C@@]3(C)CC2)[C@H](O)[C@H](O)[C@H]1O [PROSCILLARIDIN] | Not Active | Not Active | Not Active | Not Active | Not Active | Not Active | Not Active | Not Active | Not Active |  |  |  |  |  |  |  |
| Oc1cccc(O)c1O [PYROGALLOL] | Not Active | Not Active | Not Active | Not Active | Not Active | Not Active | Not Active | Not Active | Not Active |  |  |  |  |  |  |  |
| AURANOFIN | Not Active | Not Active | Not Active | Not Active | Not Active | Not Active | Not Active | Not Active | Not Active |  |  | Not Active | Not Active | Not Active | Not Active | Not Active |
